Source: ChEMBL document CHEMBL2086254, “Synthesis and identification of novel indolo[2,3-a]pyrimido[5,4-c]carbazoles as a new class of anti-cancer agents” (Eur J Med Chem, 2012)

Molecular target: Cyclin-dependent kinase 2 (Homo sapiens, UniProt P24941)
Assay: Inhibition of CDK2

IC50: < 0.06 µM
SMILES: Cn1c2ccccc2c2c3c(c4c5ccccc5n(CC(O)CO)c4c21)C(=O)NC3=O (stereo unspecified)
